Patent US12723063B2, “GIPR-agonist compounds” (Eli Lilly and Company, priority 2019, dated 2026)
*1 amine or outer side, *2 acyl side, *3 side chain or, on linkers, in order; H or OH if unused. Where a SMILES comes first, the peptide text is derived from it. Side-chain parts run from the residue outwards. [ ]: non-standard residue; d: D form. The star is where a group is joined. C20 diacid = O=C(O)CCCCCCCCCCCCCCCCCCC(=O)*; αMePhe(2-F) = C[C@](N)(Cc1ccccc1F)C(=O)O; γGlu = O=C(O)[C@H](CCC(=O)[*:2])N[*:1]; 4Pal = N[C@@H](Cc1ccncc1)C(=O)O; αMeL = CC(C)C[C@](C)(N)C(=O)O; AEEA = NCCOCCOCC(=O)O; Aib = CC(C)(N)C(=O)O

Legend:
Experiment in all cases: cAMP functional assay (HTRF) in HEK293 cells in presence of 0.1% casein
Assay type in all cases: cell-based
[1] = target: T1, human GLP-1 receptor (GLP-1R) (Homo sapiens, UniProt P43220); conditions: HEK293 cells expressing human GLP-1R, geometric mean, read-out: hGLP1R cAMP Rel EC50 nM (SEM, n)
T1 construct: expressed in transfected cells; host or cells: HEK293
T1 sequence (P43220 24-463): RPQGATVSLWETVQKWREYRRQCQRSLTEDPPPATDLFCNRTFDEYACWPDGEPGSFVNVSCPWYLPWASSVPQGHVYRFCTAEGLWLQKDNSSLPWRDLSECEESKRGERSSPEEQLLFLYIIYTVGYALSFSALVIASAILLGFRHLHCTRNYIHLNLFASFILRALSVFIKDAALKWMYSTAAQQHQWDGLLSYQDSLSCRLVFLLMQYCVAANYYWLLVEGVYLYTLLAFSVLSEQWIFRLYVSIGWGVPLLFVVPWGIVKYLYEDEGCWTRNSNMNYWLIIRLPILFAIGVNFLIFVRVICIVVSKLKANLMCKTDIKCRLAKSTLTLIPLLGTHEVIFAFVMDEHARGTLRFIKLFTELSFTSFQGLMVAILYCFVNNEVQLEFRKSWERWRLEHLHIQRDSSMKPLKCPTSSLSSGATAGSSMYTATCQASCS

[2] = target: T2, human glucagon receptor (GcgR) (Homo sapiens, UniProt P47871); conditions: HEK293 cells expressing human GcgR, geometric mean, read-out: hGcgR cAMP Rel EC50 nM (SEM, n)
T2 construct: expressed in transfected cells; host or cells: HEK293
T2 sequence (P47871 26-477): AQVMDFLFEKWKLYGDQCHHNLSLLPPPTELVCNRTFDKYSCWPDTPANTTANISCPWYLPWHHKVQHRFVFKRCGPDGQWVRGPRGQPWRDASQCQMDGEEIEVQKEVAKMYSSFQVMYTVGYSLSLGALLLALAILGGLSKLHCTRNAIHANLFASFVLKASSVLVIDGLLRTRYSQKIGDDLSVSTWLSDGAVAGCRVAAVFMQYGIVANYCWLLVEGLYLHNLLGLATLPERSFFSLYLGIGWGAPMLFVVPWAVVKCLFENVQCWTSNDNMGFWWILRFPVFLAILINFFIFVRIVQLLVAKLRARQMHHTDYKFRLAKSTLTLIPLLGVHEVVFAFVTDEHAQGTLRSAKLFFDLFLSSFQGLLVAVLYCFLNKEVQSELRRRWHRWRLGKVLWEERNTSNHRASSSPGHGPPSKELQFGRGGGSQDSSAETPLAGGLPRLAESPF

[3] = target: T3, human glucose-dependent insulinotropic peptide receptor (GIPR) (Homo sapiens, UniProt P48546); conditions: HEK293 cells expressing human GIPR, geometric mean, read-out: hGIPR cAMP Rel EC50 nM (SEM, n)
T3 construct: expressed in transfected cells; host or cells: HEK293
T3 sequence (P48546 22-466): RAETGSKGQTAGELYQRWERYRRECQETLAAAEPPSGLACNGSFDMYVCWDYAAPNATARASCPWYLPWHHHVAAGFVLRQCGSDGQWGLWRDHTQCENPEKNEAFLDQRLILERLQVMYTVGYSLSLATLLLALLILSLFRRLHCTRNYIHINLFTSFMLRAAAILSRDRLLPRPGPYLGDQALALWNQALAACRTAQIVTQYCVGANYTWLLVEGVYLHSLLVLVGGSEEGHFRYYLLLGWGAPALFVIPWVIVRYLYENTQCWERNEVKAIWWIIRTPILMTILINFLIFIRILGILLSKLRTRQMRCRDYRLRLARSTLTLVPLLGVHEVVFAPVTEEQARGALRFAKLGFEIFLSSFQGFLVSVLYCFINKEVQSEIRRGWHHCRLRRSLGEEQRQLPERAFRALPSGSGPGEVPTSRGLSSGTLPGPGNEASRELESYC

`CC[C@H](C)[C@H](NC(=O)[C@H](Cc1ccccc1)NC(=O)[C@@H](NC(=O)CNC(=O)[C@H](CCC(=O)O)NC(=O)C(C)(C)NC(=O)[C@@H](N)Cc1ccc(O)cc1)[C@@H](C)O)C(=O)N[C@@H](CO)C(=O)N[C@@H](CC(=O)O)C(=O)N[C@@H](Cc1ccc(O)cc1)C(=O)N[C@@H](CO)C(=O)N[C@H](C(=O)N[C@@](C)(CC(C)C)C(=O)N[C@@H](CC(C)C)C(=O)N[C@@H](CC(=O)O)C(=O)N[C@@H](CCCCN)C(=O)N[C@@H](CCCCNC(=O)COCCOCCNC(=O)COCCOCCNC(=O)CC[C@H](NC(=O)CCCCCCCCCCCCCCCCCCC(=O)O)C(=O)O)C(=O)N[C@@H](Cc1c[nH]cn1)C(=O)N[C@@H](CCC(N)=O)C(=O)NC(C)(C)C(=O)N[C@@H](CCC(=O)O)C(=O)N[C@@H](Cc1ccccc1)C(=O)N[C@H](C(=O)N[C@@H](CCC(=O)O)C(=O)N[C@@H](Cc1ccncc1)C(=O)N[C@@H](CC(C)C)C(=O)N[C@@H](CC(C)C)C(=O)N[C@@H](C)C(=O)N[C@@H](CCC(N)=O)C(=O)NCC(=O)N1CCC[C@H]1C(=O)N[C@@H](CO)C(=O)N[C@@H](CO)C(=O)NCC(=O)N[C@@H](C)C(=O)N1CCC[C@H]1C(=O)N1CCC[C@H]1C(=O)N1CCC[C@H]1C(=O)N[C@@H](CO)C(N)=O)C(C)C)[C@@H](C)CC` [Example 57] (H-Y[Aib]EGTFISDYSI[αMeL]LDKK([AEEA-AEEA-γGlu-C20 diacid])HQ[Aib]EFVE[4Pal]LLAQGPSSGAPPPS-NH2) was tested, and the EC50 [1] was over 5000 nM, the EC50 [2] was 886 nM and the EC50 [3] was 0.0177 nM.

With `CC[C@H](C)[C@H](NC(=O)[C@H](CO)NC(=O)[C@H](Cc1ccc(O)cc1)NC(=O)[C@H](CC(=O)O)NC(=O)[C@H](CO)NC(=O)[C@@H](NC(=O)[C@](C)(Cc1ccccc1F)NC(=O)[C@@H](NC(=O)CNC(=O)[C@H](CCC(=O)O)NC(=O)C(C)(C)NC(=O)[C@@H](N)Cc1ccc(O)cc1)[C@@H](C)O)[C@@H](C)CC)C(=O)N[C@@H](C)C(=O)N[C@@H](CC(C)C)C(=O)N[C@@H](CC(=O)O)C(=O)N[C@@H](CCCCN)C(=O)N[C@@H](CCCCNC(=O)COCCOCCNC(=O)COCCOCCNC(=O)CC[C@H](NC(=O)CCCCCCCCCCCCCCCCCCC(=O)O)C(=O)O)C(=O)N[C@@H](Cc1c[nH]cn1)C(=O)N[C@@H](CCC(N)=O)C(=O)NC(C)(C)C(=O)N[C@@H](CC(=O)O)C(=O)N[C@@H](Cc1ccccc1)C(=O)N[C@H](C(=O)N[C@@H](CCC(=O)O)C(=O)N[C@@H](Cc1ccncc1)C(=O)N[C@@H](CC(C)C)C(=O)N[C@@H](CC(C)C)C(=O)N[C@@H](CCC(=O)O)C(=O)NCC(=O)NCC(=O)N1CCC[C@H]1C(=O)N[C@@H](CO)C(=O)N[C@@H](CO)C(=O)NCC(=O)N[C@@H](C)C(=O)N1CCC[C@H]1C(=O)N1CCC[C@H]1C(=O)N1CCC[C@H]1C(=O)N[C@@H](CO)C(N)=O)C(C)C` [Example 39] (H-Y[Aib]EGT[αMePhe(2-F)]ISDYSIALDKK([AEEA-AEEA-γGlu-C20 diacid])HQ[Aib]DFVE[4Pal]LLEGGPSSGAPPPS-NH2) the EC50 [1] was 3330 nM, the EC50 [2] was over 5000 nM and the EC50 [3] was 0.0112 nM.

`CC[C@H](C)[C@H](NC(=O)[C@H](Cc1ccccc1)NC(=O)[C@@H](NC(=O)CNC(=O)[C@H](CCC(=O)O)NC(=O)C(C)(C)NC(=O)[C@@H](N)Cc1ccc(O)cc1)[C@@H](C)O)C(=O)N[C@@H](CO)C(=O)N[C@@H](CC(=O)O)C(=O)N[C@@H](Cc1ccc(O)cc1)C(=O)N[C@@H](CO)C(=O)N[C@H](C(=O)N[C@@](C)(CC(C)C)C(=O)N[C@@H](CC(C)C)C(=O)N[C@@H](CC(=O)O)C(=O)N[C@@H](CCCCN)C(=O)N[C@@H](CCCCNC(=O)COCCOCCNC(=O)COCCOCCNC(=O)CC[C@H](NC(=O)CCCCCCCCCCCCCCCCCCC(=O)O)C(=O)O)C(=O)N[C@@H](Cc1c[nH]cn1)C(=O)N[C@@H](CCC(N)=O)C(=O)NC(C)(C)C(=O)N[C@@H](CC(=O)O)C(=O)N[C@@](C)(Cc1ccccc1)C(=O)N[C@H](C(=O)N[C@@H](CCC(=O)O)C(=O)N[C@@H](Cc1ccncc1)C(=O)N[C@@H](CC(C)C)C(=O)N[C@@H](CC(C)C)C(=O)N[C@@H](C)C(=O)NCC(=O)NCC(=O)N1CCC[C@H]1C(=O)N[C@@H](CO)C(=O)N[C@@H](CO)C(=O)NCC(=O)N[C@@H](C)C(=O)N1CCC[C@H]1C(=O)N1CCC[C@H]1C(=O)N1CCC[C@H]1C(=O)N[C@@H](CO)C(N)=O)C(C)C)[C@@H](C)CC` [Example 56] was tested, and the EC50 [1] was over 5000 nM, the EC50 [2] was over 5000 nM and the EC50 [3] was 0.0169 nM.

`CC[C@H](C)[C@H](NC(=O)[C@H](Cc1ccccc1)NC(=O)[C@@H](NC(=O)CNC(=O)[C@H](CCC(=O)O)NC(=O)C(C)(C)NC(=O)[C@@H](N)Cc1ccc(O)cc1)[C@@H](C)O)C(=O)N[C@@H](CO)C(=O)N[C@@H](CC(=O)O)C(=O)N[C@@H](Cc1ccc(O)cc1)C(=O)N[C@@H](CO)C(=O)N[C@H](C(=O)N[C@@](C)(CC(C)C)C(=O)N[C@@H](CC(C)C)C(=O)N[C@@H](CC(=O)O)C(=O)N[C@@H](CCCCN)C(=O)N[C@@H](CCCCNC(=O)COCCOCCNC(=O)COCCOCCNC(=O)CC[C@H](NC(=O)CCCCCCCCCCCCCCCCCCC(=O)O)C(=O)O)C(=O)N[C@@H](Cc1c[nH]cn1)C(=O)N[C@@H](CCC(N)=O)C(=O)NC(C)(C)C(=O)N[C@@H](CC(=O)O)C(=O)N[C@@H](Cc1ccccc1)C(=O)N[C@H](C(=O)N[C@@H](CCC(=O)O)C(=O)N[C@@H](Cc1ccncc1)C(=O)N[C@@H](CC(C)C)C(=O)N[C@@H](CC(C)C)C(=O)N[C@@H](C)C(=O)NCC(=O)NCC(=O)N1CCC[C@H]1C(=O)N[C@@H](CO)C(=O)N[C@@H](CO)C(=O)NCC(=O)N[C@@H](C)C(=O)N1CCC[C@H]1C(=O)N1CCC[C@H]1C(=O)N1CCC[C@H]1C(=O)N[C@@H](CO)C(N)=O)C(C)C)[C@@H](C)CC` [Example 48] gave an EC50 [1] of over 5000 nM, an EC50 [2] of 1360 nM and an EC50 [3] of 0.0166 nM.

Work on `CC[C@H](C)[C@H](NC(=O)[C@H](Cc1ccccc1)NC(=O)[C@@H](NC(=O)CNC(=O)[C@H](CCC(=O)O)NC(=O)C(C)(C)NC(=O)[C@@H](N)Cc1ccc(O)cc1)[C@@H](C)O)C(=O)N[C@@H](CO)C(=O)N[C@@H](CC(=O)O)C(=O)N[C@@H](Cc1ccc(O)cc1)C(=O)N[C@@H](CO)C(=O)N[C@H](C(=O)N[C@@](C)(CC(C)C)C(=O)N[C@@H](CC(C)C)C(=O)N[C@@H](CC(=O)O)C(=O)N[C@@H](CCCCN)C(=O)N[C@@H](CCCCNC(=O)COCCOCCNC(=O)COCCOCCNC(=O)CC[C@H](NC(=O)CCCCCCCCCCCCCCCCCCC(=O)O)C(=O)O)C(=O)N[C@@H](Cc1c[nH]cn1)C(=O)N[C@@H](CCC(N)=O)C(=O)NC(C)(C)C(=O)N[C@@H](CC(=O)O)C(=O)N[C@@H](Cc1ccccc1)C(=O)N[C@H](C(=O)N[C@@H](CCC(=O)O)C(=O)N[C@@H](Cc1c[nH]c2ccccc12)C(=O)N[C@@H](CC(C)C)C(=O)N[C@@H](CC(C)C)C(=O)N[C@@H](CCC(=O)O)C(=O)N[C@H](C(=O)NCC(=O)N1CCC[C@H]1C(=O)N[C@@H](CO)C(=O)N[C@@H](CO)C(=O)NCC(=O)N[C@@H](C)C(=O)N1CCC[C@H]1C(=O)N1CCC[C@H]1C(=O)N1CCC[C@H]1C(=O)N[C@@H](CO)C(N)=O)[C@@H](C)O)C(C)C)[C@@H](C)CC` [Example 71] (H-Y[Aib]EGTFISDYSI[αMeL]LDKK([AEEA-AEEA-γGlu-C20 diacid])HQ[Aib]DFVEWLLETGPSSGAPPPS-NH2) yielded an EC50 [1] of over 5000 nM, an EC50 [2] of 581 nM and an EC50 [3] of 0.0721 nM.

For `CC[C@H](C)[C@H](NC(=O)[C@H](Cc1ccccc1)NC(=O)[C@@H](NC(=O)CNC(=O)[C@H](CCC(=O)O)NC(=O)C(C)(C)NC(=O)[C@@H](N)Cc1ccc(O)cc1)[C@@H](C)O)C(=O)N[C@@H](CO)C(=O)N[C@@H](CC(=O)O)C(=O)N[C@@H](Cc1ccc(O)cc1)C(=O)N[C@@H](CO)C(=O)N[C@H](C(=O)N[C@@](C)(CC(C)C)C(=O)N[C@@H](CC(C)C)C(=O)N[C@@H](CC(=O)O)C(=O)N[C@@H](CCCCN)C(=O)N[C@@H](CCCCNC(=O)COCCOCCNC(=O)COCCOCCNC(=O)CC[C@H](NC(=O)CCCCCCCCCCCCCCCCCCC(=O)O)C(=O)O)C(=O)N[C@@H](Cc1c[nH]cn1)C(=O)N[C@@H](CCC(N)=O)C(=O)NC(C)(C)C(=O)N[C@@H](CCC(=O)O)C(=O)N[C@@H](Cc1ccccc1)C(=O)N[C@H](C(=O)N[C@@H](CCC(=O)O)C(=O)N[C@@H](Cc1ccc(O)cc1)C(=O)N[C@@H](CC(C)C)C(=O)N[C@@H](CC(C)C)C(=O)N[C@@H](CCC(=O)O)C(=O)N[C@@H](C)C(=O)NCC(=O)N1CCC[C@H]1C(=O)N[C@@H](CO)C(=O)N[C@@H](CO)C(=O)NCC(=O)N[C@@H](C)C(=O)N1CCC[C@H]1C(=O)N1CCC[C@H]1C(=O)N1CCC[C@H]1C(=O)N[C@@H](CO)C(N)=O)C(C)C)[C@@H](C)CC` [Example 65] (H-Y[Aib]EGTFISDYSI[αMeL]LDKK([AEEA-AEEA-γGlu-C20 diacid])HQ[Aib]EFVEYLLEAGPSSGAPPPS-NH2), the EC50 [1] was over 5000 nM, the EC50 [2] was 850 nM and the EC50 [3] was 0.0346 nM.
